≈ marks a conversion by molar mass, not a printed value.
What was measured:
[1] = biological target: T1, Transient receptor potential cation channel subfamily V member 1 (Rattus norvegicus, UniProt O35433); experiment: Inhibition of low pH activation of rat TRPV1; format: functional
[2] = biological target: T2, Transient receptor potential cation channel subfamily V member 1 (Homo sapiens, UniProt Q8NER1); experiment: Inhibition of low pH activation of human TRPV1; format: functional
[3] = biological target: T1, Transient receptor potential cation channel subfamily V member 1; experiment: Inhibition of calcium influx evoked by capsaicin in rat TRPV1 expressing cells by fluorescence assay; format: functional, cell-based
[4] = biological target: T2, Transient receptor potential cation channel subfamily V member 1; experiment: Inhibition of calcium influx evoked by capsaicin in human TRPV1 expressing cells by fluorescence assay; format: functional
[5] = Aqueous solubility at pH 6.8 and 25 degC; format: physicochemical; conditions: aqueous medium
[6] = Half life in rat at 3 mg/kg, po; format: ADME, organism-based; parameters: dose 3 mg/kg, route oral; conditions: Wistar Han, in vivo

T2 sequence (Q8NER1 whole entry): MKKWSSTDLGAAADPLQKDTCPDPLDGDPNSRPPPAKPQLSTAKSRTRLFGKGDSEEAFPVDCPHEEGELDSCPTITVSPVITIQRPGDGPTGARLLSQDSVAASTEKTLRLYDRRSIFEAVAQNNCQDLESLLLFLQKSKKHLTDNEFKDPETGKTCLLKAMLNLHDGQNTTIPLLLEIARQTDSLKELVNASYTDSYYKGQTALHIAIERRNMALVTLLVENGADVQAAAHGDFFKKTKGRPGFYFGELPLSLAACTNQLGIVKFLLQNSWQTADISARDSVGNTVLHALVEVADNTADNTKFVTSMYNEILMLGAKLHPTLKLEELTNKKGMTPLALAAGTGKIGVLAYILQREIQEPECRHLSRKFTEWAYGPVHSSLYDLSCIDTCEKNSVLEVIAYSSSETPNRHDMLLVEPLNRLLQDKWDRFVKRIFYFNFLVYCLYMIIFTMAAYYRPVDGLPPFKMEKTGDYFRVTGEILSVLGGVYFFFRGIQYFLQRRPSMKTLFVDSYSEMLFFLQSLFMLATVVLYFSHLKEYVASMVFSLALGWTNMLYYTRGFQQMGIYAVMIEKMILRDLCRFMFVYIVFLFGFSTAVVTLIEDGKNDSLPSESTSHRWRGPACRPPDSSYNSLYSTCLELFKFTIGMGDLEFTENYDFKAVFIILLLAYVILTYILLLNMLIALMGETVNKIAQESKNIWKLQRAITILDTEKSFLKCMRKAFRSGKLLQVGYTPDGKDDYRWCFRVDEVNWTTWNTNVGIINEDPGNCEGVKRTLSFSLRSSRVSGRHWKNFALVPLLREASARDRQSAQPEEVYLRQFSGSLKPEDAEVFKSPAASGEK
T1 sequence (O35433 whole entry): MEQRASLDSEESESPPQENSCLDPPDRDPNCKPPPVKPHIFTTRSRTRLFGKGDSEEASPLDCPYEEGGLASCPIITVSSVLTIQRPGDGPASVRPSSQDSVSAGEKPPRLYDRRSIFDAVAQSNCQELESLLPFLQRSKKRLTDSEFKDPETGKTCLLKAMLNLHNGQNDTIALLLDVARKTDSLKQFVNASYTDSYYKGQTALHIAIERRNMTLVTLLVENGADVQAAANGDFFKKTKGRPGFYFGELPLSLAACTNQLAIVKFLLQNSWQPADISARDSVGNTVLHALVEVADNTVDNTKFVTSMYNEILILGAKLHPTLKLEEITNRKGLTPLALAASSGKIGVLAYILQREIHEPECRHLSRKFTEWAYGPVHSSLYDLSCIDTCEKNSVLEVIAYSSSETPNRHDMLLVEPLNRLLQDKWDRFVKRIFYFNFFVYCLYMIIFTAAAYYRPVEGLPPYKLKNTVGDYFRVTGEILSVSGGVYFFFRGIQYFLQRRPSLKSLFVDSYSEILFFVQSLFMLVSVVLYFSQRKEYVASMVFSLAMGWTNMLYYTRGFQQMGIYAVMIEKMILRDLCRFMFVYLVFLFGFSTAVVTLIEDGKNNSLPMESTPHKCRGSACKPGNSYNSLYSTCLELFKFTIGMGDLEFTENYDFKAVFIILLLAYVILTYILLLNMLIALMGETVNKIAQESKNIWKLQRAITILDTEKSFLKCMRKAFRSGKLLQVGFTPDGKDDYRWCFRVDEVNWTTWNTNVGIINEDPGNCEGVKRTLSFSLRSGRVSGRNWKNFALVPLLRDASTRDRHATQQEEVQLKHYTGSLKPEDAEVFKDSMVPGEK

Row | Compound | IC50 [4] [nM] | also measured
1 | Oc1cc2c(cc1O)CN(C(=S)NCCc1ccc(Cl)cc1)CCC2 [CAPSAZEPINE] | 334 | 
2 | CCCOc1cc(-c2cc3c(=O)[nH]c(C)nc3cc2C(C)C)ccc1Cl | 40 | 
3 | Cc1nc(O)c2cc(-c3ccc4c(c3)OCO4)c(C(C)C)cc2n1 | 31 | 
4 | Cc1nc(O)c2cc(-c3ccc(Cl)c(OCC4CCC4)c3)c(C(C)C)cc2n1 | 144 | 
5 | CC(C)(C)c1nc2[nH]c(=S)[nH]c(=O)c2cc1-c1ccc(Cl)cc1 |  | solubility [5]: 0.15 µg/mL (≈ 0.434 µM); half-life [6]: 7.5 h; IC50 [2]: 18 nM
6 | Cc1nc(O)c2cc(-c3ccc(Cl)c(OCC(=O)O)c3)c(C(C)C)cc2n1 | > 1000 | 
7 | COCCOc1cc(-c2cc3c(=O)[nH]c(C)nc3cc2C(C)C)ccc1Cl | 216 | 

Now from value to molecule, other results behind:

Row | IC50 [4] [nM] | Compound | also measured
8 | 100 | CC(C)(C)c1nc2[nH]c(=S)[nH]c(=O)c2cc1-c1ccccc1 | IC50 [1]: 25 nM; IC50 [2]: 49 nM; IC50 [3]: 90 nM
9 | 12 | CCOc1cc(-c2cc3c(=O)[nH]c(C)nc3cc2C(C)C)ccc1Cl | 
10 | 82 | CCCCOc1cc(-c2cc3c(=O)[nH]c(C)nc3cc2C(C)C)ccc1Cl | 
11 | 23 | Cc1nc2cc(C(C)C)c(-c3ccc(Cl)c(F)c3)cc2c(=O)[nH]1 | 
12 | 14 | COc1cc(-c2cc3c(=O)[nH]c(C)nc3cc2C(C)C)ccc1Cl | 

From ChEMBL document CHEMBL1147725, “Identification and biological characterization of 6-aryl-7-isopropylquinazolinones as novel TRPV1 antagonists that are effective in models of chronic pain” (J Med Chem, 2006)
